According to publication PMC5546122, “Effects of Fungicides on Rat's Neurosteroid Synthetic Enzymes” (BioMed Research International, 2017):
Like-named read-outs stand apart in the source and are kept apart here.

How the values were obtained:
[1] = molecular target: T1, 3α-HSD (3α-hydroxysteroid dehydrogenase; AKR1C14) (Rattus norvegicus, UniProt P23457); experiment: radiometric TLC enzyme assay, transfected COS-1 cytosol; format: biochemical
T1 construct: gene Akr1c9; Akr1c14 in pRc/CMV, transient expression in COS-1 cells, cytosolic fraction
T1 sequence (P23457 1-322): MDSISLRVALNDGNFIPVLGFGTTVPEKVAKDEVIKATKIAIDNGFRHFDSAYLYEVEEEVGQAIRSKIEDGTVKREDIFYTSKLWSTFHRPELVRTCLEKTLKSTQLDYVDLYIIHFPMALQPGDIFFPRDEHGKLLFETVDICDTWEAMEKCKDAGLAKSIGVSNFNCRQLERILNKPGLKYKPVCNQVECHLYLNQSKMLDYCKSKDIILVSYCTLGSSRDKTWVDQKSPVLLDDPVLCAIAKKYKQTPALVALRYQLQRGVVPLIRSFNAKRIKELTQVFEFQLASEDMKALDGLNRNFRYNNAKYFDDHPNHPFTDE
From the text: radiometric TLC enzyme assay, transfected COS-1 cytosol on 3α-HSD (3α-hydroxysteroid dehydrogenase; AKR1C14)

[2] = molecular target: T2, 5α-Red1 (5α-reductase 1; SRD5A1) (Rattus norvegicus, UniProt P24008); experiment: radiometric TLC enzyme assay, transfected COS-1 microsomes; format: biochemical
T2 construct: Srd5a1 in pcDNA1.1, transient expression in COS-1 cells, microsomal fraction
T2 sequence (P24008 1-259): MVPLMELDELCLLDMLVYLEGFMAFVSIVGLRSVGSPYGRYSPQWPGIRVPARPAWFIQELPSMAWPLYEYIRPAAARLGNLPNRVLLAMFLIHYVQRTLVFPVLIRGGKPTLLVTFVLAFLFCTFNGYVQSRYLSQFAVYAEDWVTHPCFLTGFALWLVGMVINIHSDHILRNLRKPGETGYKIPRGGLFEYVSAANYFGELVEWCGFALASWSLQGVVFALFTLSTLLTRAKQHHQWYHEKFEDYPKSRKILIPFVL
From the text: radiometric TLC enzyme assay, transfected COS-1 microsomes on 5α-Red1 (5α-reductase 1; SRD5A1)

[3] = molecular target: T3, RDH2 (retinol dehydrogenase 2) (Rattus norvegicus, UniProt P50170); experiment: as above; format: biochemical
T3 construct: gene Rdh16; full-length cDNA in pcDNA1.1, transient expression in COS-1 cells, microsomal fraction
T3 sequence (P50170 1-317): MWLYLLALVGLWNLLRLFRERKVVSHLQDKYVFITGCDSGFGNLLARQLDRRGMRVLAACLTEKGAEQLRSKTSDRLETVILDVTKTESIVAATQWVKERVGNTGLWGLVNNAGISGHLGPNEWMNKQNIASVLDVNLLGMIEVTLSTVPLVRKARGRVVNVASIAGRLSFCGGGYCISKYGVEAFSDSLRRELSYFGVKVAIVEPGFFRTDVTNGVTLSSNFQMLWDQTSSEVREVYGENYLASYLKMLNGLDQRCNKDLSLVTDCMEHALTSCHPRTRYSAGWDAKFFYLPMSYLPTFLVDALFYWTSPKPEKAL
From the text: radiometric TLC enzyme assay, transfected COS-1 microsomes on RDH2 (retinol dehydrogenase 2)

[4] = molecular target: T3, RDH2 (retinol dehydrogenase 2); experiment: as above; format: biochemical; conditions: read-out: % of control activity at 100 μM
[5] = molecular target: T2, 5α-Red1 (5α-reductase 1; SRD5A1); experiment: as above; format: biochemical; conditions: read-out: % of control activity at 100 μM
[6] = substrate: C[C@]12CCC(=O)C[C@@H]1CC[C@@H]1[C@@H]2CC[C@]2(C)[C@@H](O)CC[C@@H]12; experiment: cells, lysate or membranes; conditions: 0.2 mM NADPH, 0.0315–10 µM dihydrotestosterone, PBS pH 7.2, radiolabelled tracer
[7] = substrate: C[C@]12CC[C@@H](O)C[C@@H]1CC[C@@H]1[C@@H]2CC[C@]2(C)[C@@H](O)CC[C@@H]12; experiment: cells, lysate or membranes; conditions: 0.2 mM NAD+, 0.0315–10 µM DIOL, PBS pH 7.2, radiolabelled tracer
[8] = substrate: C[C@]12CC[C@H]3[C@@H](CCC4=CC(=O)CC[C@@]43C)[C@@H]1CC[C@@H]2O; experiment: cells, lysate or membranes; conditions: 0.2 mM NADPH, 0.0315–10 µM testosterone, PBS pH 7.2, radiolabelled tracer

CC(C)(C)C(O)(CCc1ccc(Cl)cc1)Cn1cncn1 (stereo not drawn) [tebuconazole]
IC50 [1]: ~100 µM | IC50 [2]: 8.67 ± 0.771 µM | IC50 ([3]; read-out: 3α-HSD): > 100 µM

CC(C)(C)C(=O)C(Oc1ccc(Cl)cc1)n1cncn1 (stereo not drawn) [triadimefon]
IC50 [1]: 26.49 ± 0.076 µM | IC50 [2]: 17.39 ± 0.079 µM | IC50 ([3]; read-out: RDH2): > 100 µM

C=CC1(C)OC(=O)N(c2cc(Cl)cc(Cl)c2)C1=O (stereo not drawn) [vinclozolin]
IC50 [1]: ~100 µM | remaining activity at 100 µM [4]: 85.5 ± 2.2% | remaining activity at 100 µM [5]: 74.2 ± 5.57%

B1: 3α-HSD (3α-hydroxysteroid dehydrogenase; AKR1C14) (Rattus norvegicus) (protein)
chain: MDSISLRVALNDGNFIPVLGFGTTVPEKVAKDEVIKATKIAIDNGFRHFDSAYLYEVEEEVGQAIRSKIEDGTVKREDIFYTSKLWSTFHRPELVRTCLEKTLKSTQLDYVDLYIIHFPMALQPGDIFFPRDEHGKLLFETVDICDTWEAMEKCKDAGLAKSIGVSNFNCRQLERILNKPGLKYKPVCNQVECHLYLNQSKMLDYCKSKDIILVSYCTLGSSRDKTWVDQKSPVLLDDPVLCAIAKKYKQTPALVALRYQLQRGVVPLIRSFNAKRIKELTQVFEFQLASEDMKALDGLNRNFRYNNAKYFDDHPNHPFTDE
Km [6]: 3.148 ± 0.197 µM | Vmax [6]: 6.67e-05 µmol/min/mg

B2: RDH2 (retinol dehydrogenase 2) (Rattus norvegicus) (protein)
chain: MWLYLLALVGLWNLLRLFRERKVVSHLQDKYVFITGCDSGFGNLLARQLDRRGMRVLAACLTEKGAEQLRSKTSDRLETVILDVTKTESIVAATQWVKERVGNTGLWGLVNNAGISGHLGPNEWMNKQNIASVLDVNLLGMIEVTLSTVPLVRKARGRVVNVASIAGRLSFCGGGYCISKYGVEAFSDSLRRELSYFGVKVAIVEPGFFRTDVTNGVTLSSNFQMLWDQTSSEVREVYGENYLASYLKMLNGLDQRCNKDLSLVTDCMEHALTSCHPRTRYSAGWDAKFFYLPMSYLPTFLVDALFYWTSPKPEKAL
Km [7]: 2.850 ± 0.037 µM | Vmax [7]: 0.00053 µmol/min/mg

B3: 5α-Red1 (5α-reductase 1; SRD5A1) (Rattus norvegicus) (protein)
chain: MVPLMELDELCLLDMLVYLEGFMAFVSIVGLRSVGSPYGRYSPQWPGIRVPARPAWFIQELPSMAWPLYEYIRPAAARLGNLPNRVLLAMFLIHYVQRTLVFPVLIRGGKPTLLVTFVLAFLFCTFNGYVQSRYLSQFAVYAEDWVTHPCFLTGFALWLVGMVINIHSDHILRNLRKPGETGYKIPRGGLFEYVSAANYFGELVEWCGFALASWSLQGVVFALFTLSTLLTRAKQHHQWYHEKFEDYPKSRKILIPFVL
Km [8]: 1.397 ± 0.35 µM | Vmax [8]: 3.49e-06 µmol/min/mg
